Data on two molecules can be found in patent publication US5622947A, “Benzoheterocyclic compounds and vasopressin antagonist and oxytocin antagonist compositions containing a benzoheterocyclic compound” (Otsuka Pharmaceutical Co., Ltd., priority 1992, dated 1997).

Experiment [1] deals with increase in the diastolic pressure caused by vasopressin. The experiment is described as follows: Vasopressin antagonistic activity in vivo. As to conditions: Rattus norvegicus; oral, awake male SD-rats, vasopressin 30 mU/kg i.v.; read-out: ID50 (oral dose required to achieve 50% inhibitory effect on increase in diastolic pressure). On the procedure:
Test-3: Vasopressin antagonistic activity in vivo
In order to test the vasopressin antagonistic activity of the compound of the present invention when admistered orally to rats under awaking, the following experiment was conducted. Cannulas were inserted into the aorta abdominalis and the carotid arteries of male SD-rats (body weight: 300-450 g) under pentobarbital-anesthetization. A few days thereafter, vasopressin (30 mU/kg) was administered intravenously to the rats under awaking with measuring the blood pressure at the cannula inserted into the arorta abdominalis by a piezo-electric transducer. The test compound was dissolved in polyethylene glycol or water, or suspended in 5% gum arabic solution, and orally administered by force to the rats.
The increase in the diastolic pressure of the rat was periodically mesured at 30 minutes' interval after the administration of vasopressin for 8 hours. The rate of inhibitory effect (%) of the test compound on the increase in the diastolic pressure caused by vasopressin (30 mU/kg) was calculated based on the increase in the diastolic pressure when vasopressin (30 mU/kg) was intravenously administered without a test compound.
The test result is expressed as ID50 value, which is the oral dose of the test compound required to achieve the inhibitory effect in the rate of 50% and is shown in Table 158 as follows: […]

Experiment [2] is described as follows: Anti-antiduretic water diuretic activity in vivo. The note with it: oral, male SD-rats, first 2 hours, vs control group; read-out: ED3 (oral dose required to increase the amount of urine excreted for the first 2 hours). On the procedure:
Test-4: Anti-antiduretic water diuretic/activity in vivo
The test compound of the present invention was dissolved in polyethylene glycol 400 or water or suspended in 5% gum arabic aqueous solution, and the mixture was orally administered by force to male SD-rats (body weight: 300 to 400 g) under untreated and unrestrained. After administration the rats were kept in a metabolism cage and the amount of urine spontaneously excreted by the rats was measured at 2 hours' interval, during which the rats could freely be given feed and water.
In the cotrol group, a solvent was administered instead of a test compound solution (or suspension).
The test results are expressed as ED3, which is the oral dose of the test compound which is required to increase the amount of the urine excreted from the rat in the test compound-treated group for the first 2 hours by time based on the amount of urine excreted from the rat for the first 2 hours in the control group.

Experiment [3] has as its target T1, V1 Recepter (rat liver plasma membrane preparations) (Rattus norvegicus, UniProt P30560).
T1 construct: rat liver plasma membrane preparations; from tissue; host or cells: rat liver plasma membranes
The experiment is described as follows: V1 Recepter binding assay. The note with it: [3H]-Arg-vasopressin 2×10^-10 M, 37° C., 10 minutes, pH 8.0, rat liver plasma membrane. The essentials: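 Rat liver plasma membranes incubated with [3H]-Arg-vasopressin (2×10^-10 M) and compound (10^-8 to 10^-4 M) for 10 min at 37° C in Tris-HCl pH 8.0 with MgCl2, EDTA, BSA. Bound label separated by glass-fibre filtration, scintillation counted; nonspecific binding with 10^-6 M vasopressin; IC50 reported.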

Experiment [4] concerns the target T2, V2 Recepter (rat kidney plasma membrane preparations) (Rattus norvegicus, UniProt Q00788).
T2 construct: rat kidney plasma membrane preparations; from tissue; host or cells: rat kidney plasma membranes
As to the kind of experiment: V2 Recepter binding assay. As to conditions: [3H]-Arg-vasopressin 4×10^-10 M, 4° C., pH 8.0, rat kidney plasma membrane. The essentials: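 Rat kidney plasma membranes incubated with [^3H]-Arg-vasopressin (4×10^-10 M) and test compound (10^-10 to 10^-5 M) for 3 h at 4 °C in 100 mM Tris-HCl pH 8.0 with 5 mM MgCl2, 1 mM EDTA, 0.1% BSA. Bound label by filtration and scintillation counting; nonspecific binding with 10^-6 M vasopressin; IC50 reported.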

Experiment [5] addresses T3, Oxytocin receptor (uterin muscle membrane preparation) (Rattus norvegicus, UniProt P70536).
T3 construct: was homogenized, which was used as a membrane; from tissue; host or cells: uterine muscle membranes from diethylstilbestrol-treated animals
T3 sequence (P70536 1-388): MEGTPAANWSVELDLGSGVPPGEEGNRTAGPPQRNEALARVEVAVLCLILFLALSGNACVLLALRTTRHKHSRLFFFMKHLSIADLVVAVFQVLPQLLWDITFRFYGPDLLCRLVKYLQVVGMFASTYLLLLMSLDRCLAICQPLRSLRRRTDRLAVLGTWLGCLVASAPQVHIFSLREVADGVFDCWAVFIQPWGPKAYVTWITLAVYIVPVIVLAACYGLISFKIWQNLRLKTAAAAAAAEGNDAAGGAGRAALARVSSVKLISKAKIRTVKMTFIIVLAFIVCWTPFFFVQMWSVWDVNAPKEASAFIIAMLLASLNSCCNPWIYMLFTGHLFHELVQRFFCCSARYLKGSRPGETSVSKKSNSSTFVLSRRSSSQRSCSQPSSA
The experiment is described as follows: Oxytocin receptor binding assay. The note with it: [3H]-oxytocin 10^-9 M, 25°, one hour, pH 8.0, uterin muscle membrane, DES-treated. In a few lines: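 Rat uterine membranes (0.2 mg; DES-primed day before) incubated 1 h at 25° with [3H]-oxytocin (10^-9 M) and compound (10^-9 to 10^-5 M) in 100 mM Tris-HCl pH 8.0, 5 mM MgCl2, 1 mM EDTA, 0.1% BSA. Filter-bound radioactivity counted; nonspecific with 5×10^-6 M oxytocin; IC50 reported.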

pIC50: −log10 of the molar value. Structures can show the parent of a compound that is named as a salt.

T1 sequence (P30560 whole entry): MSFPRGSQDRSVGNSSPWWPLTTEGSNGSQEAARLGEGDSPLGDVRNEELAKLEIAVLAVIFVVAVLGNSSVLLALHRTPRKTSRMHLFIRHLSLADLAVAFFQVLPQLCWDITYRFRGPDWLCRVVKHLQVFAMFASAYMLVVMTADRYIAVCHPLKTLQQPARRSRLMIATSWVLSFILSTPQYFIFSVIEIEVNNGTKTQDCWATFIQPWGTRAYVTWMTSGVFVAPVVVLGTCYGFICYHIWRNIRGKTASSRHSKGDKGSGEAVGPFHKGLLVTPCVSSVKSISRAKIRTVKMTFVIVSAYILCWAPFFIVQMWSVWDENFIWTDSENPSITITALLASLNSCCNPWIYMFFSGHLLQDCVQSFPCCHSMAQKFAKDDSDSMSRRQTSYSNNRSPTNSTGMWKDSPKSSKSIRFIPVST
T2 sequence (Q00788 whole entry): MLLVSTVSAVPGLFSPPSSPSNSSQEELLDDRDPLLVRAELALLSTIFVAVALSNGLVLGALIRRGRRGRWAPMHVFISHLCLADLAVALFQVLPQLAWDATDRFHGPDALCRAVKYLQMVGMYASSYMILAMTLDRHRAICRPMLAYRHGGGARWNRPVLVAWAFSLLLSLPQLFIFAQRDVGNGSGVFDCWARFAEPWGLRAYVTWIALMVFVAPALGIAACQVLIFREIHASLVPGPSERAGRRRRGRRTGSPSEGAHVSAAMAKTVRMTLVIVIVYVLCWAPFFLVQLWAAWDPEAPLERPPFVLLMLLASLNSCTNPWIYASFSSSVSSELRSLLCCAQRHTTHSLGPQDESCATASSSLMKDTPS

Turning to `COc1cc(NC(=O)c2ccccc2C)ccc1C(=O)N1CCCC(CC(=O)N2CCN(C)CC2)c2cc(Cl)ccc21` (centres unmarked) [Example 63, 5-[(4-Methyl-1-piperazinyl)carbonylmethyl]-7-chloro-1-[2-methoxy-4-(2-methylbenzoylamino)benzoyl]-2,3,4,5-tetrahydro-1H-benzoazepine], the ED50 in experiment [1] turned out to be 3.4 mg/kg. In experiment [2], the ED (3-fold) is 3.2 mg/kg.

On to `COc1cc(NC(=O)c2ccccc2Cl)ccc1C(=O)N1CCCC(OCCNC(C)=N)c2cc(Cl)ccc21` (centres unmarked) [Example 135, 5-[2-(1-Iminoethyl)aminoethoxy]-7-chloro-1-[2-methoxy-4-(2-chlorobenzoylamino)benzoyl]-2,3,4,5-tetrahydro-1H-benzoazepine.cndot.hydrochloride], for which the pIC50 is 7.74 in experiment [3], 8.31 in experiment [4] and 6.84 in experiment [5].
